Results from paper PMC10608790, “Structural Diversity and Biological Activity of Cyanopeptolins Produced by Nostoc edaphicum CCNP1411” (Marine Drugs, 2023).
pIC50: −log10 of the molar value. Like-named read-outs stand apart in the source and are kept apart here.

Tests used:
thrombin = thrombin (Homo sapiens, UniProt P00734); test: Thrombin inhibition assay; assay type: biochemical; conditions: highest concentration in the assay 45 µg × mL−1
Method: (§1) The enzyme inhibitory activity of cyanopeptolins was assayed against trypsin [108], chymotrypsin, thrombin [109], and elastase as described before. In brief, the samples were prepared and serially diluted (1 mg, 1:1—1:10,000 times) in 1% DMSO; the standard inhibitors: aprotinin (trypsin and chymotrypsin) AEBSF 4-(2-aminoethyl)benzenesulfonyl fluoride hydrochloride (thrombin), elastatinal (elastase) (all from Sigma Aldrich; St. Louis, MO, USA) were also prepared in 1% DMSO. DMSO (1%) without the addition of the enzyme served as a negative control. All tests were carried out in triplicates. After the incubation of the assay mixtures, the absorbances were measured at 405 nm (Varioskan Flash Thermo Fisher Scientific OY, Vantaa, Finland). The reduction in enzyme activity greater than 50% was considered as significant.

elastase [1] = molecular target: T1, elastase (Sus scrofa, UniProt P00772); test: Elastase inhibition assay; assay type: biochemical; conditions: for pIC50: read-out: E (elastase) IC50; for E (elastase) inhibition class: class symbol instead of IC50
T1 sequence (P00772 27-266): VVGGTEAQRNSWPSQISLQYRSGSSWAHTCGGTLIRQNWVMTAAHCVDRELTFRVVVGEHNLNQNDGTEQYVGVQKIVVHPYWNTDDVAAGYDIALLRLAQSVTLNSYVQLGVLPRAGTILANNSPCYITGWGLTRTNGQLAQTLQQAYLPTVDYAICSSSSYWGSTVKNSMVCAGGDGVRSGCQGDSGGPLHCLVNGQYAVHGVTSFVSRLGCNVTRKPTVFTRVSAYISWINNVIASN
Method: as §1

[2] = test system: human cervical cancer (HeLa) cell line; test: MTT assay on HeLa cells; assay type: cell-based; conditions: 200 µg × mL−1, 24 h
Method: The cytotoxic activity of the selected 17 CPs against the HeLa cervical cancer cell line (Merck KGaA, Darmstadt, Germany) was assessed with the MTT (3-(4,5-dimethylthiazole-2-yl)-2,5-diphenyltetrazolium bromide) assay according to Felczykowska et al.. HeLa cells were seeded at 4 × 10^3 cells per well in DMEM medium (Merck KGaA) supplemented with 10% (v/v) fetal bovine serum (Merck KGaA) and penicillin-streptomycin solution (1% v/v, stock solution 50 u and 0.05 mg × mL^−1, respectively; Merck KGaA). Cells were allowed to attach overnight, and then the tested compounds prepared in 1% DMSO were added. After incubation (24 h), 25 µL of MTT solution (4 mg × mL^−1; Merck KGaA) were added and then the samples were incubated for another 4 h. The formazan crystals were dissolved with 100% DMSO and absorbance was measured with Spectramax i3 (Molecular Deviecs, LLC San Jose, CA, USA). The reduction in cell viability greater than 60% was considered as significant.

chymotrypsin [3] = molecular target: T2, chymotrypsin (Bos taurus, UniProt P00766); test: Chymotrypsin inhibition assay; assay type: biochemical; conditions: class symbol instead of IC50
Method: as §1, with “In” for “The enzyme inhibitory activity of cyanopeptolins was assayed against trypsin [108], chymotrypsin, thrombin [109], and elastase as described before. In”

trypsin = molecular target: T3, trypsin (Bos taurus, UniProt P00760); test: Trypsin inhibition assay; assay type: biochemical; conditions: for TRY (trypsin) inhibition class: class symbol instead of IC50; for activity against serine proteases (in words): Arg2-containing CPs lacking the side-chain, Table 1 enzymes
T3 sequence (P00760 24-246): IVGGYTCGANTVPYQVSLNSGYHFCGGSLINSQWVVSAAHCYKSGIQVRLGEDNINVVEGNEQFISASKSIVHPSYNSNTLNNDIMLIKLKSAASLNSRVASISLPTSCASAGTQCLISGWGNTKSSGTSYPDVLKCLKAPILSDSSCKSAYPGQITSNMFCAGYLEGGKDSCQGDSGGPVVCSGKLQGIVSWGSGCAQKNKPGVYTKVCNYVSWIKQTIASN
Method: as §1

[4] = test system: KB human epithelial carcinoma cells; parameters: method as in PMID 12762794; conditions: cited from earlier work
elastase [5] = molecular target: T1, elastase; parameters: method as in doi:10.1016/j.tet.2019.04.046; conditions: cited from earlier work
HeLa S3 cells = test system: HeLa S3 cells; parameters: method as in doi:10.1016/j.tet.2019.04.046; conditions: cited from earlier work
[6] = test system: neuro-2a neuroblastoma cells; parameters: method as in PMID 18163584; conditions: cited from earlier work
H-460 lung cancer cells = test system: H-460 lung cancer cells; parameters: method as in PMID 18163584; conditions: cited from earlier work
breast cancer cells = test system: breast cancer cells; parameters: method as in PMID 29405541; conditions: cited from earlier work
enzymes = test system: enzymes; parameters: method as in PMID 20028081; conditions: cited from earlier work
chymotrypsin [7] = molecular target: T2, chymotrypsin; parameters: method as in PMID 29949853; conditions: results published earlier; read-out: CHY (chymotrypsin) IC50, value marked *; cited from earlier work
breast cancer cell line = test system: breast cancer cell line; parameters: method as in PMID 29949853; conditions: up to 500 µg × mL−1; cited from earlier work

For `CCCC(=O)NC(CC(=O)O)C(=O)NC1C(=O)NC(CC(C)C)C(=O)NC2CCC(O)N(C2=O)C(Cc2ccccc2)C(=O)N(C)C(Cc2ccc(OC)cc2)C(=O)NC(C(C)C)C(=O)OC1C` (centres unmarked) [CP 949, [Thr + Leu + Ahp + Phe + diMeTyr + Val]Asp + BA], the “TRB (thrombin) inhibition class” value (thrombin) was “− (not active (inhibition below 50%))”, the pIC50 (elastase [1]) was 5.48 and the “reduction in cell viability versus control” value (shortened to “reduction”) [2] was 71.5%.
With `CCCCCC(=O)NC(CC(=O)O)C(=O)NC1C(=O)NC(CCCNC(=N)N)C(=O)NC2CCC(O)N(C2=O)C(Cc2ccccc2)C(=O)N(C)C(Cc2ccccc2)C(=O)NC(C(C)C)C(=O)OC1C` (centres unmarked) [CP 990, [Thr + Arg + Ahp + Phe + MePhe + Val]Asp + HA] the “TRB (thrombin) inhibition class” value (thrombin) was “− (not active (inhibition below 50%))” and the “E (elastase) inhibition class” value (elastase [1]) was “− (not active (inhibition below 50%))”.
With “[Thr + Tyr + Ahp + Phe + MePhe + Val]Asp + OA [CP 1025]” the “TRB (thrombin) inhibition class” value (thrombin) was “− (not active (inhibition below 50%))”, the “CHY (chymotrypsin) inhibition class” value (chymotrypsin [3]) was “+/− (low activity (inhibition between 50 and 60%))” and the “TRY (trypsin) inhibition class” value (trypsin) was “− (not active (inhibition below 50%))”. The “E (elastase) inhibition class” value (elastase [1]) was “− (not active (inhibition below 50%))”.
In the case of `CCCC(=O)NC(CC(=O)O)C(=O)NC1C(=O)NC(Cc2ccc(O)cc2)C(=O)NC2CCC(O)N(C2=O)C(Cc2ccccc2)C(=O)N(C)C(Cc2ccc(OC)cc2)C(=O)NC(C(C)C)C(=O)OC1C` (centres unmarked) [CP 999, [Thr + Tyr + Ahp + Phe + diMeTyr + Val]Asp + BA], the “TRB (thrombin) inhibition class” value (thrombin) was “− (not active (inhibition below 50%))” and the “E (elastase) inhibition class” value (elastase [1]) was “− (not active (inhibition below 50%))”.
In the case of `CCCC(=O)N[C@H](C(=O)N[C@@H]1C(=O)N[C@@H](CC(C)C)C(=O)N[C@H]2CC[C@@H](O)N(C2=O)[C@@H](CC(C)C)C(=O)N(C)[C@@H](Cc2ccccc2)C(=O)N[C@@H](C(C)C)C(=O)O[C@@H]1C)C(C)C` [tasipeptin A], the “cytotoxic effect (in words)” value [4] is given as “cytotoxic”.
For kyanamide, the pIC50 (elastase [5]) is listed as 9.89 and the “cytotoxic effect (in words)” value (HeLa S3 cells) is listed as “moderately cytotoxic”.
In the case of `CCCC(=O)NC(CC(=O)O)C(=O)NC1C(=O)NC(CC(C)C)C(=O)NC2CCC(O)N(C2=O)C(Cc2ccccc2)C(=O)N(C)C(Cc2ccccc2)C(=O)NC(C(C)C)C(=O)OC1C` (centres unmarked) [CP 919, [Thr + Leu + Ahp + Phe + MePhe + Val]Asp + BA], the “TRB (thrombin) inhibition class” value (thrombin) was “− (not active (inhibition below 50%))”, the pIC50 (elastase [1]) was 5.24 and the “reduction” value [2] was 97.6%.
For `CCCC(=O)N[C@@H](CCC(N)=O)C(=O)N[C@@H]1C(=O)N[C@@H](CCCNC(N)=O)C(=O)N[C@H]2CC[C@@H](O)N(C2=O)[C@@H]([C@@H](C)CC)C(=O)N(C)[C@@H](Cc2ccc(OC)c(Br)c2)C(=O)N[C@@H](C(C)C)C(=O)O[C@@H]1C` [symplocamide A], the “cytotoxic effect (in words)” value [6] is given as “affected” and the “cytotoxic effect (in words)” value (H-460 lung cancer cells) is given as “affected”.
In the case of “[Thr + Arg + Ahp + Phe + diMeTyr + Val] [CP 809]”, the “TRB (thrombin) inhibition class” value (thrombin) was “− (not active (inhibition below 50%))”, the “CHY (chymotrypsin) inhibition class” value (chymotrypsin [3]) was “− (not active (inhibition below 50%))” and the “activity against serine proteases (in words)” value (trypsin) was “not active”. For the same molecule, the “TRY (trypsin) inhibition class” value (trypsin) was “− (not active (inhibition below 50%))” and the “E (elastase) inhibition class” value (elastase [1]) was “− (not active (inhibition below 50%))”.
In the case of “[Thr + Arg + Ahp + Phe + MePhe + Val] [CP 778]”, the “TRB (thrombin) inhibition class” value (thrombin) was “− (not active (inhibition below 50%))”, the “CHY (chymotrypsin) inhibition class” value (chymotrypsin [3]) was “− (not active (inhibition below 50%))” and the “activity against serine proteases (in words)” value (trypsin) was “not active”. The “TRY (trypsin) inhibition class” value (trypsin) was “− (not active (inhibition below 50%))” and the “E (elastase) inhibition class” value (elastase [1]) was “− (not active (inhibition below 50%))”.
For `CCCC(=O)N[C@@H]1C(=O)N[C@@H](CC(C)C)C(=O)N[C@H]2CC[C@@H](O)N(C2=O)[C@@H](CC(C)C)C(=O)N(C)[C@@H](Cc2ccccc2)C(=O)N[C@@H](C(C)C)C(=O)O[C@@H]1C` [tasipeptin B], the “cytotoxic effect (in words)” value [4] is listed as “cytotoxic”.
In the case of `C/C=C1\NC(=O)[C@@H](NC(=O)[C@@H](NC(=O)[C@H](C)NC(=O)CCC)[C@@H](C)O)[C@@H](C)OC(=O)[C@H](C(C)C)NC(=O)[C@H](Cc2ccc(O)cc2)N(C)C(=O)[C@H](Cc2ccccc2)N2C(=O)[C@H](CC[C@H]2O)NC1=O` [molassamide], the “effect on elastase-mediated migration (in words)” value (breast cancer cells) is given as “inhibiting”.
For Micropeptin MZ771, the “effect on the activity of enzymes (in words)” value (enzymes) is listed as “did not affect the activity of enzymes”.
With “[Thr + Phe + Ahp + Phe + diMeTyr + Val]Asp + HA [CP 1011]” the “TRB (thrombin) inhibition class” value (thrombin) was “− (not active (inhibition below 50%))”, the “CHY (chymotrypsin) inhibition class” value (chymotrypsin [3]) was “− (not active (inhibition below 50%))” and the “TRY (trypsin) inhibition class” value (trypsin) was “− (not active (inhibition below 50%))”. For the same molecule, the “E (elastase) inhibition class” value (elastase [1]) was “− (not active (inhibition below 50%))”.
For `CCCC(=O)N[C@@H](CC(=O)O)C(=O)N[C@@H]1C(=O)N[C@@H](CCCNC(=N)N)C(=O)N[C@H]2CC[C@@H](O)N(C2=O)[C@@H](Cc2ccccc2)C(=O)N(C)[C@@H](Cc2ccc(O)cc2)C(=O)N[C@@H](C(C)C)C(=O)O[C@@H]1C` [CP 978, [Thr + Arg + Ahp + Phe + MeTyr + Val]Asp + BA], the pIC50 (chymotrypsin [7]) is given as 5.42 and the “reduction” value [2] is given as 62.5%.
For `CCCC(=O)N[C@@H](CC(=O)O)C(=O)N[C@@H]1C(=O)N[C@@H](Cc2ccc(O)cc2)C(=O)N[C@H]2CC[C@@H](O)N(C2=O)[C@@H](Cc2ccccc2)C(=O)N(C)[C@@H](Cc2ccc(O)cc2)C(=O)N[C@@H](C(C)C)C(=O)O[C@@H]1C` [CP 985, [Thr + Tyr + Ahp + Phe + MeTyr + Val]Asp + BA], the “cytotoxic activity (in words)” value (breast cancer cell line) is given as “no effects were observed”.
For `CCCC(=O)N[C@@H](CC(=O)O)C(=O)N[C@@H]1C(=O)N[C@@H](CCCNC(=N)N)C(=O)N[C@H]2CC[C@@H](O)N(C2=O)[C@@H](Cc2ccccc2)C(=O)N(C)[C@@H](Cc2ccccc2)C(=O)N[C@@H](C(C)C)C(=O)O[C@@H]1C` [CP 962, [Thr + Arg + Ahp + Phe + MePhe + Val]Asp + BA], the “cytotoxic activity (in words)” value (breast cancer cell line) is given as “no effects were observed”.
For `CC(=O)NC(CC(=O)O)C(=O)NC1C(=O)NC(Cc2ccc(O)cc2)C(=O)NC2CCC(O)N(C2=O)C(Cc2ccccc2)C(=O)N(C)C(Cc2ccccc2)C(=O)NC(C(C)C)C(=O)OC1C` (centres unmarked) [CP 941, [Thr + Tyr + Ahp + Phe + MePhe + Val]Asp + Ac], the “TRB (thrombin) inhibition class” value (thrombin) was “− (not active (inhibition below 50%))” and the “E (elastase) inhibition class” value (elastase [1]) was “− (not active (inhibition below 50%))”.
With `CCCC(=O)NC(CC(=O)O)C(=O)NC1C(=O)NC(Cc2ccccc2)C(=O)NC2CCC(O)N(C2=O)C(Cc2ccccc2)C(=O)N(C)C(Cc2ccc(OC)cc2)C(=O)NC(C(C)C)C(=O)OC1C` (centres unmarked) [CP 983, [Thr + Phe + Ahp + Phe + diMeTyr + Val]Asp + BA] the “TRB (thrombin) inhibition class” value (thrombin) was “− (not active (inhibition below 50%))” and the “E (elastase) inhibition class” value (elastase [1]) was “− (not active (inhibition below 50%))”.
